{"source": "patent US8318746B2", "about": "“Nitrogen-containing five-membered heterocyclic compound” (Takeda Pharmaceutical Company Limited, priority 2007, dated 2012)", "note": "Structures can show the parent of a compound that is named as a salt."}
{"smiles": "O=C(Cc1ccc(-c2ccc(C(CC3CCOCC3)c3ccc(S(=O)(=O)C4CC4)cc3)[nH]2)nc1)N1CCC1", "note": "(stereo not drawn) [Example 131, 5-(2-(azetidin-1-yl)-2-oxoethyl)-2-(5-{1-[4-(cyclopropylsulfonyl)phenyl]-2-(tetrahydro-2H-pyran-4-yl)ethyl}-1H-pyrrol-2-yl)pyridine]", "melting point": "94 to 98 °C"}
{"smiles": "O=C(Cc1ccc(-c2ccc(C(CC3CCOCC3)c3ccc(S(=O)(=O)C4CC4)cc3)[nH]2)nc1)N1CCOCC1", "note": "(stereo not drawn) [Example 130, 4-{[6-(5-{1-[4-(cyclopropylsulfonyl)phenyl]-2-(tetrahydro-2H-pyran-4-yl)ethyl}-1H-pyrrol-2-yl)pyridin-3-yl]acetyl}morpholine]", "melting point": "202 to 203 °C"}
{"smiles": "O=C(NC1CC1)c1ccc(-c2ccc(C(CC3CCOCC3)c3ccc(S(=O)(=O)C4CC4)cc3)[nH]2)nc1", "note": "(stereo not drawn) [Example 119, N-cyclopropyl-6-(5-{1-[4-(cyclopropylsulfonyl)phenyl]-2-(tetrahydro-2H-pyran-4-yl)ethyl}-1H-pyrrol-2-yl)pyridine-3-carboxamide]", "melting point": "134 to 136 °C"}
{"smiles": "O=C(c1ccc(-c2ccc(C(CC3CCOCC3)c3ccc(S(=O)(=O)C4CC4)cc3)[nH]2)nc1)N1CCOCC1", "note": "(stereo not drawn) [Example 121, 5-(morpholin-4-ylcarbonyl)-2-(5-[1-[4-(cyclopropylsulfonyl)phenyl]-2-(tetrahydro-2H-pyran-4-yl)ethyl]-1H-pyrrol-2-yl)pyridine]", "melting point": "114 to 116 °C"}
{"smiles": "O=C1CC[C@H](CC(c2ccc(S(=O)(=O)C3CC3)cc2)c2ccc(-c3nccs3)[nH]2)C1", "note": "(stereo partly drawn) [Example 102, (3R)-3-{2-[4-(cyclopropylsulfonyl)phenyl]-2-[5-(1,3-thiazol-2-yl)-1H-pyrrol-2-yl]ethyl}cyclopentanone]", "melting point": "165 to 167 °C"}
{"smiles": "CS(=O)(=O)c1ccc(C(CC2CCOCC2)c2ccc(-c3ccccn3)[nH]2)cn1", "note": "(stereo not drawn) [Example 137, 2-(methylsulfonyl)-5-[1-(5-(pyridin-2-yl)-1H-pyrrol-2-yl)-2-(tetrahydro-2H-pyran-4-yl)ethyl]pyridine]", "melting point": "89 to 90 °C"}
{"smiles": "CC(c1cnc(-c2ccc(C(CC3CCOCC3)c3ccc(S(=O)(=O)C4CC4)cc3)[nH]2)s1)N(C)C", "note": "(stereo not drawn) (as salt: hydrochloride) [Example 157, 1-[2-(5-{1-[4-(cyclopropylsulfonyl)phenyl]-2-(tetrahydro-2H-pyran-4-yl)ethyl}-1H-pyrrol-2-yl)-1,3-thiazol-5-yl]-N,N-dimethylethanamine dihydrochloride]", "melting point": "147 to 148 °C"}
{"smiles": "CS(=O)(=O)c1ccc(C(CC2CCOCC2)c2ccc(-c3nnc(CO)s3)[nH]2)cc1", "note": "(stereo not drawn) [Example 221, [5-(5-{1-[4-(methylsulfonyl)phenyl]-2-(tetrahydro-2H-pyran-4-yl)ethyl}-1H-pyrrol-2-yl)-1,3,4-thiadiazol-2-yl]methanol]", "melting point": "199 to 201 °C"}
{"smiles": "CCOC(=O)c1cc(-c2nccs2)[nH]c1C(CC1CCOCC1)c1ccc(S(=O)(=O)C2CC2)cc1", "note": "(stereo not drawn) [Example 103, Ethyl 2-{1-[4-(cyclopropylsulfonyl)phenyl]-2-(tetrahydro-2H-pyran-4-yl)ethyl}-5-(1,3-thiazol-2-yl)-1H-pyrrole-3-carboxylate]", "melting point": "178 to 179 °C"}
{"smiles": "COC(=O)c1ccc(-c2ccc(C(CC3CCOCC3)c3ccc(S(=O)(=O)C4CC4)cc3)[nH]2)nc1", "note": "(stereo not drawn) [Example 118, Methyl 6-(5-{1-[4-(cyclopropylsulfonyl)phenyl]-2-(tetrahydro-2H-pyran-4-yl)ethyl}-1H-pyrrol-2-yl)pyridine-3-carboxylate]", "melting point": "150 to 152 °C"}
{"smiles": "CC(C)(O)c1ccc(-c2ccc(C(CC3CCOCC3)c3ccc(S(=O)(=O)C4CC4)cc3)[nH]2)nc1", "note": "(stereo not drawn) [Example 125, 2-[6-(5-{1-[4-(cyclopropylsulfonyl)phenyl]-2-(tetrahydro-2H-pyran-4-yl)ethyl}-1H-pyrrol-2-yl)pyridin-3-yl]propan-2-ol]", "melting point": "112 to 114 °C"}
{"smiles": "CC(O)COc1ccc(-c2ccc(C(CC3CCOCC3)c3ccc(S(=O)(=O)C4CC4)cc3)[nH]2)nc1", "note": "(stereo not drawn) [Example 117, 1-{[6-(5-{1-[4-(cyclopropylsulfonyl)phenyl]-2-(tetrahydro-2H-pyran-4-yl)ethyl}-1H-pyrrol-2-yl)pyridin-3-yl]oxy}propan-2-ol]", "melting point": "116 to 118 °C"}
{"smiles": "CC(C)=Cc1ccc(-c2ccc(C(CC3CCOCC3)c3ccc(S(=O)(=O)C4CC4)cc3)[nH]2)nc1", "note": "(stereo not drawn) [Example 126, 2-(5-{1-[4-(cyclopropylsulfonyl)phenyl]-2-(tetrahydro-2H-pyran-4-yl)ethyl}-1H-pyrrol-2-yl)-5-(2-methylprop-1-en-1-yl)pyridine]", "melting point": "114 to 116 °C"}
{"smiles": "N#CCc1ccc(-c2ccc(C(CC3CCOCC3)c3ccc(S(=O)(=O)C4CC4)cc3)[nH]2)nc1", "note": "(stereo not drawn) [Example 128, [6-(5-{1-[4-(cyclopropylsulfonyl)phenyl]-2-(tetrahydro-2H-pyran-4-yl)ethyl}-1H-pyrrol-2-yl)pyridin-3-yl]acetonitrile]", "melting point": "139 to 141 °C"}
{"smiles": "NC(=O)c1cc(-c2nccs2)[nH]c1C(CC1CCOCC1)c1ccc(S(=O)(=O)C2CC2)cc1", "note": "(stereo not drawn) [Example 106, 2-{1-[4-(cyclopropylsulfonyl)phenyl]-2-(tetrahydro-2H-pyran-4-yl)ethyl}-5-(1,3-thiazol-2-yl)-1H-pyrrole-3-carboxamide]", "melting point": "241 to 243 °C"}
{"smiles": "Cl.O=C1CCN(Cc2cnc(-c3ccc(C(CC4CCOCC4)c4ccc(S(=O)(=O)C5CC5)cc4)[nH]3)s2)CC1", "note": "(stereo not drawn)", "melting point": "146 to 148 °C"}
{"smiles": "COC(=O)Nc1cc(-c2nccs2)[nH]c1C(CC1CCOCC1)c1ccc(S(=O)(=O)C2CC2)cc1", "note": "(stereo not drawn) [Example 181, Methyl [2-{1-[4-(cyclopropylsulfonyl)phenyl]-2-(tetrahydro-2H-pyran-4-yl)ethyl}-5-(1,3-thiazol-2-yl)-1H-pyrrol-3-yl]carbamate]", "melting point": "120 to 122 °C"}
{"smiles": "NC(=O)c1ccc(-c2ccc(C(CC3CCOCC3)c3ccc(S(=O)(=O)C4CC4)cc3)[nH]2)nc1", "note": "(stereo not drawn) [Example 124, 6-(5-{1-[4-(cyclopropylsulfonyl)phenyl]-2-(tetrahydro-2H-pyran-4-yl)ethyl}-1H-pyrrol-2-yl)pyridine-3-carboxamide]", "melting point": "136 to 138 °C"}
{"smiles": "N#Cc1cc(-c2nccs2)[nH]c1C(CC1CCOCC1)c1ccc(S(=O)(=O)C2CC2)cc1", "note": "(stereo not drawn) [Example 107, 2-{1-[4-(cyclopropylsulfonyl)phenyl]-2-(tetrahydro-2H-pyran-4-yl)ethyl}-5-(1,3-thiazol-2-yl)-1H-pyrrole-3-carbonitrile]", "melting point": "114 to 116 °C"}
{"smiles": "O=C(O)Cc1cnc(-c2ccc(C(CC3CCOCC3)c3ccc(S(=O)(=O)C4CC4)cc3)[nH]2)s1", "note": "(stereo not drawn) [Example 149, [2-(5-{1-[4-(cyclopropylsulfonyl)phenyl]-2-(tetrahydro-2H-pyran-4-yl)ethyl}-1H-pyrrol-2-yl)-1,3-thiazol-5-yl]acetic acid]", "melting point": "246 to 247 °C (dec.)"}
{"smiles": "CS(=O)(=O)c1ccc(C(CC2CCOCC2)c2cnc(-c3ccccn3)[nH]2)cc1Cl", "note": "(stereo not drawn) [Example 183, 2-(5-{1-[3-chloro-4-(methylsulfonyl)phenyl]-2-(tetrahydro-2H-pyran-4-yl)ethyl}-1H-imidazol-2-yl)pyridine]", "melting point": "106 to 109 °C"}
{"smiles": "CC(O)c1cnc(-c2ccc(C(CC3CCOCC3)c3ccc(S(=O)(=O)C4CC4)cc3)[nH]2)s1", "note": "(stereo not drawn) [Example 166, Optically Active Form of 1-[2-(5-{1-[4-(cyclopropylsulfonyl)phenyl]-2-(tetrahydro-2H-pyran-4-yl)ethyl}-1H-pyrrol-2-yl)-1,3-thiazol-5-yl]ethanol]", "melting point": "105 to 106 °C"}
{"smiles": "CC(CC1CCOCC1)(c1ccc(S(C)(=O)=O)cn1)c1ccc(-c2ccccn2)[nH]1", "note": "(stereo not drawn) [Example 245, 2-[1-methyl-1-(5-(pyridin-2-yl)-1H-pyrrol-2-yl)-2-(tetrahydro-2H-pyran-4-yl)ethyl]-5-(methylsulfonyl)pyridine]", "melting point": "135 to 136 °C"}
{"smiles": "CC(C)(O)COc1ccc(-c2ccc(C(CC3CCOCC3)c3ccc(S(=O)(=O)C4CC4)cc3)[nH]2)nc1", "note": "(stereo not drawn) [Example 116, 1-{[6-(5-{1-[4-(cyclopropylsulfonyl)phenyl]-2-(tetrahydro-2H-pyran-4-yl)ethyl}-1H-pyrrol-2-yl)pyridin-3-yl]oxy}-2-methylpropan-2-ol]", "melting point": "110 to 112 °C"}
{"smiles": "CN(C)C(=O)c1cc(-c2nccs2)[nH]c1C(CC1CCOCC1)c1ccc(S(=O)(=O)C2CC2)cc1", "note": "(stereo not drawn) [Example 105, 2-{1-[4-(cyclopropylsulfonyl)phenyl]-2-(tetrahydro-2H-pyran-4-yl)ethyl}-N,N-dimethyl-5-(1,3-thiazol-2-yl)-1H-pyrrole-3-carboxamide]", "melting point": "180 to 182 °C"}
{"smiles": "NC(=O)Cc1ccc(-c2ccc(C(CC3CCOCC3)c3ccc(S(=O)(=O)C4CC4)cc3)[nH]2)nc1", "note": "(stereo not drawn) [Example 132, 2-[6-(5-{1-[4-(cyclopropylsulfonyl)phenyl]-2-(tetrahydro-2H-pyran-4-yl)ethyl}-1H-pyrrol-2-yl)pyridin-3-yl]acetamide]", "melting point": "151 to 153 °C"}
{"smiles": "O=C(O)CCc1cnc(-c2ccc(C(CC3CCOCC3)c3ccc(S(=O)(=O)C4CC4)cc3)[nH]2)s1", "note": "(stereo not drawn) (as salt: calcium) [Example 163, 3-[2-(5-{1-[4-(cyclopropylsulfonyl)phenyl]-2-(tetrahydro-2H-pyran-4-yl)ethyl}-1H-pyrrol-2-yl)-1,3-thiazol-5-yl]propanoic acid 1/2 calcium salt]", "melting point": "> 194 °C (dec.)"}
{"smiles": "CC(C)(O)C(O)c1ccc(-c2ccc(/C(=C/C3CCOCC3)c3ccc(S(=O)(=O)C4CC4)cc3)[nH]2)nc1", "note": "(stereo not drawn) [Example 220, 1-(6-{5-[(E)-1-[4-(cyclopropylsulfonyl)phenyl]-2-(tetrahydro-2H-pyran-4-yl)ethenyl]-1H-pyrrol-2-yl}pyridin-3-yl)-2-methylpropane-1,2-diol]", "melting point": "196 to 197 °C"}
{"smiles": "CC(O)c1cnc(-c2ccc(C(CC3CCOCC3)c3ccc(S(=O)(=O)C4CC4)cc3)[nH]2)s1", "note": "(stereo not drawn) [Example 168, Optically Active Form of 1-[2-(5-{1-[4-(cyclopropylsulfonyl)phenyl]-2-(tetrahydro-2H-pyran-4-yl)ethyl}-1H-pyrrol-2-yl)-1,3-thiazol-5-yl]ethanol]", "melting point": "115 to 116 °C"}
{"smiles": "CC(C)(O)C(O)c1ccc(-c2ccc(C(CC3CCOCC3)c3ccc(S(C)(=O)=O)c(Cl)c3)[nH]2)nc1", "note": "(stereo not drawn) [Example 133, 1-[6-(5-{1-[3-chloro-4-(methylsulfonyl)phenyl]-2-(tetrahydro-2H-pyran-4-yl)ethyl}-1H-pyrrol-2-yl)pyridin-3-yl]-2-methylpropane-1,2-diol]", "melting point": "138 to 140 °C"}
